Assay results as given in US20060089347A1, “Substituted azepines as histamine h3 receptor antagonists, preparation and therapeutic uses” (Eli Lilly and Company, priority 2002, published 2006).
Structures can show the parent of a compound that is named as a salt.

Tests used:
H3R membranes = target: T1, H3R membranes (Homo sapiens, UniProt Q9Y5N1); assay: [35S]GTPγS binding assay (antagonist activity); assay type: biochemical; conditions: inhibition of [35S]GTPγS binding to H3R membranes in presence of agonist R(-)alpha methylhistamine
T1 construct: expressed in transfected cells; host or cells: HEK293 (clone H3R8)
T1 sequence (Q9Y5N1 whole entry): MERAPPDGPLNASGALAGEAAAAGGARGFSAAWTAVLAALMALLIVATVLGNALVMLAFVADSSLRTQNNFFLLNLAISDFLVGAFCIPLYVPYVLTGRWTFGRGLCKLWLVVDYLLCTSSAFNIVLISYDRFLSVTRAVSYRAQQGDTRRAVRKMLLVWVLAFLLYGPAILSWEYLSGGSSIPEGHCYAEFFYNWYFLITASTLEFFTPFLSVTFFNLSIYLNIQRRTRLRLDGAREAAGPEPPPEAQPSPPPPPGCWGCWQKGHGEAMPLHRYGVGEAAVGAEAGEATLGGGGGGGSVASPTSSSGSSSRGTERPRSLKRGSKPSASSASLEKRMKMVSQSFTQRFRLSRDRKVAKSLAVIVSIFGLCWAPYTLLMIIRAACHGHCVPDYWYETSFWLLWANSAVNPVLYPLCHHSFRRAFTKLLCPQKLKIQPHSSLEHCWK
Method: Membranes isolated as described in (Preparation of Histamine Receptor Subtype Membranes) were used in a [35S]GTPχS functional assay. Binding of [35S]GTPχS to membranes indicates agonist activity. Compounds of the invention of Formula I were tested for their ability to inhibit binding in the presence of agonists. Alternately, the same transfected cell lines were used for a cAMP assay wherein H3R agonists inhibited forskolin-activated synthesis of cAMP. Compounds of Formula I were tested for their ability to permit forskolin-stimulated cAMP synthesis in the presence of agonist.
(§1) cDNA for the human histamine 3 receptor was cloned and expressed as described in (Preparation of Histamine Receptor Subtye Membranes: A), above. Transfected cells were selected using G418 ([…]), grown, and tested for histamine binding by the SPA described above. For total binding, cells were assayed in a SPA reaction described above containing 50 mM Tris-HCL (assay buffer), pH 7.6, 1 mg wheat germ agglutinin SPA beads (Amersham Pharmacia Biotech, #RPNQ0001), and 1nM […]-n-alpha-methylhistamine (NEN, NET1027) (total volume per well=200μl). Thioperimide was added to determine non-specific binding. […]
Antagonist activity of selected compounds was tested for inhibition of [35S] […] Plates were counted in Wallac Trilux 1450 Microbeta scintillation counter for 1 minute. […]

H3R = target: T2, H3R (Homo sapiens, UniProt Q9Y5N1); assay: competitive inhibition SPA binding assay, H3R; conditions: selectivity panel
T2 construct: expressed in transfected cells; host or cells: HEK293 (clone H3R8)
T2 sequence (Q9Y5N1 whole entry): as above
Source text: The inventive compounds can readily be evaluated by using a competitive inhibition Scintillation Proximity Assay (SPA) based on a H3R binding assay using [3H] a methylhistamine as ligand. Stable cell lines, including but not limited to HEK can be transfected with cDNA coding for H3R to prepare membranes used for the binding assay. The technique is illustrated below (Preparation of Histamine Receptor Subtype Membranes) for the histamine receptor subtypes.
as §1, with “binding. Several clones were selected as positive for binding, and a single clone (H3R8) was used to prepare membranes for binding studies described above. Five micrograms of protein was used per well in the SPA receptor-binding assay.” for “binding.”

H4R = target: T3, H4R (Homo sapiens, UniProt Q9H3N8); assay: competitive binding assay, GPRv53 (H4R); conditions: for Ki: competitive binding, selectivity panel; for inhibition of binding to H4R: in contrast to H3R
T3 construct: expressed in transfected cells; host or cells: HEK293 (HEK293 GPRv53 50 cells)
Method: cDNA for the human GPRv53 receptor was cloned and expressed as described in (Preparation of Histamine Receptor Subtype Membranes: A), above. Transfected cells were selected, tested for histamine binding, and selected. HEK293 GPRv53 50 cells were grown to confluency in DMEM/F12 (Gibco) supplemented with 5% FBS and 500 ug/ml G418 and washed with Delbecco's PBS (Gibco) and harvested by scraping. Whole cells were homogenized with a Polytron tissuemizer in binding buffer, 50 mM Tris pH 7.5. Cell lysates, 50 ug, were incubated in 96 well dishes with 3 nM (3H) Histamine and compounds in binding buffer for 2 hours at room temperature. Lysates were filtered through glass fiber filters (Perlin Elmer) with a Tomtec cell harverster. Filters were counted with melt-on scintillator sheets (Perlin Elmer) in a Wallac Trilux 1450 Microbeta Scintillation counter for 5 minutes.
(§2) To investigate the selectivity of the antagonists for the histamine receptors, a competitive binding assay described above was performed. […] Until the present invention, most known H3R antagonists also bound H4R.

H1R = target: T4, H1R (Homo sapiens, UniProt P35367); assay: competitive SPA binding assay, H1R; conditions: selectivity panel
T4 construct: expressed in transfected cells; host or cells: HEK293 (clone HIR40), vector pcDNA3.1(+)
T4 sequence (P35367 whole entry): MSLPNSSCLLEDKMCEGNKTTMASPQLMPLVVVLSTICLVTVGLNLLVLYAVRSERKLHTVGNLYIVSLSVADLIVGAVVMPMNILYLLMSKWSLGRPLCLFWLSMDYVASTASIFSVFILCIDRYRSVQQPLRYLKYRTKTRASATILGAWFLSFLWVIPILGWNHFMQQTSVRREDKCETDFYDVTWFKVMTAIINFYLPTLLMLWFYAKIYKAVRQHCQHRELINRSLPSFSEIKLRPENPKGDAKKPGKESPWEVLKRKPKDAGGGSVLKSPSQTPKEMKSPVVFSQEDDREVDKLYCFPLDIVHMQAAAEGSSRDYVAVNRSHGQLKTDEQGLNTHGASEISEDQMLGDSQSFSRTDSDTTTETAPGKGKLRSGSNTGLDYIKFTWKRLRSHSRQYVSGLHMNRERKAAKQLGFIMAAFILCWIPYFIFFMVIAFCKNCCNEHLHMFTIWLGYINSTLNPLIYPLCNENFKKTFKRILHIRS
Method: cDNA for the human histamine 1 receptor (H1R) was cloned into a mammalian expression vector containing the CMV promoter (pcDNA3.1(+), Invitogen) and transfected into HEK293 cells using the FuGENE Tranfection Reagent (Roche Diagnostics Corporation). Transfected cells were selected using G418 (500 μ/ml). Colonies that survived selection were grown and tested for histamine binding to cells grown in 96-well dishes using a scintillation proximity assay (SPA) based radioligand binding assay. Briefly, cells, representing individual selected clones, were grown as confluent monolayers in 96-well dishes (Costar Clear Bottom Plates, #3632) by seeding wells with 25,000 cells and growing for 48 hours (37° C., 5% CO2). Growth media was removed and wells were rinsed two times with PBS (minus Ca^2+ or Mg^2+). For total binding, cells were assayed in a SPA reaction containing 50 mM Tris-HCL (assay buffer), pH 7.6, 1 mg wheat germ agglutinin SPA beads (Amersham Pharmacia Biotech, #RPNQ0001), and 0.8 nM ^3H-pyrilamine (Net-594, NEN) (total volume per well=[…]). Astemizole (10 μM, Sigma #A6424) was added to appropriate wells to determine non-specific binding. Plates were covered with FasCal and incubated at room temperature for 120 minutes. […] Plates were counted in a Wallac Trilux 1450 Microbeta scintillation counter. […]

H2R = target: T5, H2R (Homo sapiens, UniProt P25021); assay: competitive SPA binding assay, H2R; conditions: selectivity panel
T5 construct: expressed in transfected cells; host or cells: HEK 293 (clone H2R10)
T5 sequence (P25021 whole entry): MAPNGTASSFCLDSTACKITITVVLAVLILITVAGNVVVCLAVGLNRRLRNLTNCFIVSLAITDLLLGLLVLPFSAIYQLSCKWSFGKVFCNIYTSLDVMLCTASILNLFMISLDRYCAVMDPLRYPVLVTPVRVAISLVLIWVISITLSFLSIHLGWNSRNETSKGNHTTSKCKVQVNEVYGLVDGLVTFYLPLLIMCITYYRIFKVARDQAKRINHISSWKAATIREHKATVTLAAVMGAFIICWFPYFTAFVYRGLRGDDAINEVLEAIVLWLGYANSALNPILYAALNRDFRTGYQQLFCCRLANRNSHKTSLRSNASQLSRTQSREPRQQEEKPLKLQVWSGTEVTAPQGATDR
Method: cDNA for the human histamine 2 receptor was cloned, expressed and transfected into HEK 293 cells as described above. Histamine binding to cells was assayed by SPA described above. For total binding, cells were assayed in a SPA reaction containing 50 mM Tris-HCl (assay buffer), pH 7.6, 1 mg wheat germ agglutinin SPA beads (Amersham PharmaciaBiotech, #RPNQ0001), and 6.2 nM ^3H-tiotidine (Net-688, NEN) (total volume per well=200 μl). Cimetidine (10 μM, Sigma #C4522) was added to appropriate wells to determine non-specific binding.
Several clones were selected as positive for binding, and a single clone (H2R10) was used to prepare membranes for binding studies. Five micrograms of protein was used per well in the SPA receptor-binding assay.
as §2

[1] = rat pharmacokinetics iv/po; assay type: in vivo, Male Sprague Dawley Rats; conditions: male, Sprague Dawley, blood; for bioavailability: 3 mg/kg iv or 10 mg/kg po, AUC 0-8 hr po/iv ratio, vehicle water; for half-life: 10 mg/kg po
Method: Non-imidazole containing histamine H3 receptor antagonists disclosed in the literature generally have very poor pharmacokinetic properties (see J. Apelt, et al, J. Med. Chem. 2002, 45, 1128-1141). […] Male Sprague Dawley Rats (n=3 per dose arm) were separately dosed with 3 mg/kg iv or 10 mg/kg po of compound examples 8 and 19 (vehicle: water; dose volume: 1 mL/kg iv, 10 ml/kg po). Approximately 0.5 mL of blood was collected in heparin collection tubes at multiple time points over an 8 or 24 hour period for examples 8 and 19 respectively, and the samples were analyzed using LC/MS/MS.

| Ki (H3R membranes) [nM] | Ki (H3R) [nM] | Ki (H4R) [nM] | inhibition of binding to H4R (H4R) | Ki (H1R) [nM] | Ki (H2R) [nM] | bioavailability [1] [%] | half-life [1] [h] | Compound |
| --- | --- | --- | --- | --- | --- | --- | --- | --- |
| 5.1 | 5.1 | ≥ 20000 | did not inhibit binding H4R | 648 | 813 | – | – | CC(C)(C)OC(=O)N1CCCc2cc(OCCCN3CCCCC3)ccc2C1 [Example 1, 7-(3-Piperidin-1-yl-propoxy)-1,3,4,5-tetrahydro-benzo[c]azepine-2-carboxylic acid tert-butyl ester] |
| 0.85 | 0.85 | ≥ 20000 | did not inhibit binding H4R | 1760 | 894 | – | – | c1cc2c(cc1OCCCN1CCCCC1)CCCNC2 [Example 2, 7-(3-Piperidin-1-yl-propoxy)-2,3,4,5-tetrahydro-1H-benzo[c]azepine dihydrochloride] |
| – | – | – | – | – | – | 49 | 12.2 | CN(C)CC(=O)N1CCCc2cc(OCCCN3CCCCC3)ccc2C1 [Example 8, 2-Dimethylamino-1-[7-(3-piperidin-1-yl-propoxy)-1,3,4,5-tetrahydro-benzo[c]azepin-2-yl]-ethanone] |
| – | – | – | – | – | – | 100 | 12.4 | CC(=O)N1CCc2ccc(OCCCN3CCCCC3)cc2CC1 [Example 19, 1-[7-(3-Piperidin-1-yl-propoxy)-1,2,4,5-tetrahydro-benzo[d]azepin-3-yl]-ethanone] |
